Consider 22 molecules from patent US20100022514A1, “Heterocycle Compounds and Methods of Use Thereof” (NORVARTIS AG, priority 2006, published 2010).

The IC50 is the concentration that inhibits the measured activity by half. The AC50 is the midpoint of the concentration-response curve, whichever way the signal moves.

SMILES strings stand for the structures. Where only a bound is given, the exact number is not on record here.

For one assay, the target named is T1, HDAC-1 (Homo sapiens, UniProt Q13547).
T1 construct: made in house
T1 sequence (Q13547 whole entry): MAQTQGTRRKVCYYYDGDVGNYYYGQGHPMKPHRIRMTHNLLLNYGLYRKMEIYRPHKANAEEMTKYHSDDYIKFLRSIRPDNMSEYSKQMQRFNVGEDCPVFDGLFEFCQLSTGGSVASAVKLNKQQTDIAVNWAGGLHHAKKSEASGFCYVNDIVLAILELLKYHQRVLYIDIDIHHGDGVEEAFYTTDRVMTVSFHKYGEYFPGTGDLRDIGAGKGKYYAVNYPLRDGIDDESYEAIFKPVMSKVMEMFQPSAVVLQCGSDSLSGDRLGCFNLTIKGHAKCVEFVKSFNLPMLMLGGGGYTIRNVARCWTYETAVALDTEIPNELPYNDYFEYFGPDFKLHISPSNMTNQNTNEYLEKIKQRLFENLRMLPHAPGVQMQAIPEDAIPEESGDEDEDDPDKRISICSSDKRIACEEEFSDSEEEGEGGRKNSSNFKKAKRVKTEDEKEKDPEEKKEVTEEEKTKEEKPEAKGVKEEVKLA
Description: Deacetylase fluorescence assay (HDAC-1). The class given is biochemical. Conditions: read-out: HDAC-1 IC50. As for the experimental part: Conventional methods are used to express deacetylase enzymes and purify them from lysed cells. The following example describes an exemplary procedure, however equivalent procedures are within the scope of the invention.
The cell line used is a derivative of 293 cells overexpressing a fusion of the gene encoding each deacetylase protein with a nucleotide sequence encoding the Flag marker.
Cells are grown in Optimem, 2% Fetal Calf Serum, Pen/Strep. For enzyme preparation, Lysis buffer (IPLS) is 50 mM Tris-HCl, pH 7.5, 120 mM NaCl, 0.5 mM EDTA and 0.5% Nonidet P-40, to which is added one tablet of Protease inhibitors (Roche 11836170001) per 10 ml buffer. Other buffers are IPHS, which is IPLS containing 1 M NaCl; TBS (Sigma #T5912) dilute 10× stock to 1× with dH2O; HD buffer: 10 mM Tris pH 8.0 (1M Stock) 10 mM NaCl (5M Stock), 10% glycerol, and for dialysis: 400 μM PMSF is added (for 2 L: use 8 ml 100 mM Stock). Protease inhibitors (Complete mini, Boehringer Mannheim), 1 tablet/10 mL are added to all buffers but not used in buffers for enzyme assays.
Cells are harvested without using trypsin, and most cells are obtained easily in PBS, with gentle striking or agitation of flasks if necessary. More adherent cells are scraped in PBS. Cells are grown in 500 cm^2 trays, from which about half of the media is aspirated (50 ml total), then cells are scraped in the rest of the media and transferred to a centrifuge tube. Trays are washed with 25 ml cold PBS, scraped again to collect additional cells, and centrifuged at 1500 rpm at 4° C. for 5 min. Cells are washed at least 3 times in PBS to remove growth media, pelleting cells after each wash by centrifugation at 1500 rpm for 5 minutes. After washing, PBS is removed and the resulting cell pellet frozen at −80° C. for storage prior to purification.
For purification, cells are resuspended in lysis buffer, 12 ml of IPLS for cells collected from 10 500 cm trays. Cells are lysed at 4° C. for 3 hrs with rocking, and debris is removed by centrifugation for 20 min at 17,000 rpm in 30 ml centrifuge tubes. If supernatant is not clear afterward, centrifugation of the supernatant is repeated. Protein concentration of the whole cell lysate is determined (generally in the range of about 2-5 mg/ml).
For immunoprecipitation per mg of protein, 15 μL of anti-Flag M2-Agarose Affinity beads (Sigma #A2220) is used. Beads are prepared by washing 3 times with 10× bead volume of PBS and 1 time with IPLS, with centrifugation of the washes at 1500 rpm for 5 min. Whole cell lysate is incubated with the Ab-beads overnight at 4° C. Then beads are centrifuged and washed in 5× volume of the following buffers: three times in IPLS (30 sec at 4° C., spin at 1500 RPM for 5 min); three times in IPHS; and three times in TBS buffer. After each centrifugation, the supernatant is aspirated, leaving the pellet as dry as possible but avoiding sucking up any of the beads.
To elute the enzyme, beads are resuspended in 5× bead volume of TBS with protease inhibitor (Roche 11836170001) 1 tablet/10 mL. Enzyme is eluted with 400 μg/mL Flag peptide (Sigma #F-3290) for 3 hrs at 4° C. on rotator. Then beads are centrifuged, and the supernatant is transferred to a new tube to which is added 1/10 volume of glycerol. The supernatant is transferred to a dialysis cassette (Pierce #66410) using a 3 cc syringe and 18 G needle, and is dialyze sup in 2 L HD buffer for 2 hrs at 4° C. (1 L/hour). The resulting purified deacetylase is divided into aliquots (300 μL/tube), is snap frozen in dry ice bath, and is stored at −80° C.
For assay of deacetylase an assay based on Deacetylase Fluorescent Activity Assay/Drug Discovery Kit (BioMol # AK500) is used, however any equivalent deacetylase assay is within the scope of the invention.
The Fluorescent Assay Buffer (FAB) contains: 25 mM Tris-HCl, pH 8.0, 137 mM NaCl, 2.7 mM KCl and 1 mM MgCl2. […]

Assay [1] has as its system p21 promoter (p21-luc) in H1299 cells. Description: p21 promoter luciferase assay using stably transfected p21-luc in H1299 cells. The assay is classed as cell-based. Conditions: Homo sapiens, NCI-H1299. As for the experimental part: The cell lines used are derived from H1299 (p21-luc). The growth media used is RPMI 1640, 10% FBS, 1% Pen/Strep and the selection media added is 500 μg/mL Geneticin (Gibco). The buffer used is 5× cell culture lysis buffer (Promega #E1531), stored at −20 C and the Luciferase assay reagent (Promega #E1483) is stored at −70° C. The results of the assay are analyzed using Wallac Software.
To assay Luciferase, the cell culture medium is removed after one day of growth and the flasks are washed once with PBS. The cells are trypsinized in 20 mL of media and the trypsin is neutralized. The cells are counted (0.5-1 mL) on a Vi-Cell XR cell viability analyzer.
Cells are then diluted to a concentration of approximately 5000 cells/200 μL, and 190 μL samples are aliquoted into each well of a Costar white 96-well TC treated white bottom plate with lid (Costar #3917). Plates are then incubated overnight at 37 C.
After a further day, a sample of the compound is added to the wells for assay.
After a further day, the cells are lysed and the luciferase activity of the lysed cells is measured. Each well is washed twice with PBS and 20 μL/well of 1× cell culture lysis buffer (dilute 5× to 1× in distilled water) is added to each well. The microtiter plates are then shaken on a microtiter plate shaker for 20 minutes at room temperate at a speed setting of 5-6. After removal from the shaker, 100 μL of Luciferase Reagent is added to each well. Each microtiter plate is then read on Wallac Envision instrument.

On to `O=C(/C=C/c1ccc2c(c1)CN(Cc1ccccc1)C2)NO` [Example 1, (E)-3-(2-Benzyl-2,3-dihydro-1H-isoindol-5-yl)-N-hydroxy-acrylamide], for which the IC50 on HDAC-1 fell in the range of 100 to 1000 nM. This molecule also came in with an AC50 in assay [1] of over 1000 nM.

Consider `CC(C)(C)OC(=O)N1Cc2ccc(/C=C/C(=O)NO)cc2C1` [Example 2, 5-((E)-2-Hydroxycarbamoyl-vinyl)-1,3-dihydro-isoindole-2-carboxylic acid tert-butyl ester], for which the 50% inhibitory concentration (IC50) on HDAC-1 was 100 to 1000 nM. This molecule displayed a half-maximal activity concentration (AC50) in assay [1] of over 1000 nM.

Regarding `CC(C)(C)C(=O)N1Cc2ccc(/C=C/C(=O)NO)cc2C1` [Example 3, (E)-3-[2-(2,2-Dimethyl-propionyl)-2,3-dihydro-1H-isoindol-5-yl]-N-hydroxy-acrylamide], the IC50 on HDAC-1 was in the range of 100 to 1000 nM. In assay [1], this molecule returned an AC50 of over 1000 nM.

For the molecule `CS(=O)(=O)N1Cc2ccc(/C=C/C(=O)NO)cc2C1` [Example 4, (E)-N-Hydroxy-3-(2-methanesulfonyl-2,3-dihydro-1H-isoindol-5-yl)-acryl amide], the IC50 at HDAC-1 fell in the range of 100 to 1000 nM. The molecule further had a half-maximal activity concentration (AC50) in assay [1] of over 1000 nM.

On to `O=C(/C=C/c1ccc2c(c1)CN(S(=O)(=O)c1ccccc1)C2)NO` [Example 5, (E)-3-(2-Benzenesulfonyl-2,3-dihydro-1H-isoindol-5-yl)-N-hydroxy-acrylamide], for which the IC50 on HDAC-1 lay in the range of 100 to 1000 nM. The molecule further registered a half-maximal activity concentration (AC50) in assay [1] of over 1000 nM.

Turning to `O=C(/C=C/c1ccc2c(c1)CN(S(=O)(=O)c1ccncc1)C2)NO` [Example 6, (E)-N-Hydroxy-3-[2-(pyridine-4-sulfonyl)-2,3-dihydro-1H-isoindol-5-yl]-acrylamide], at HDAC-1, the concentration for half-maximal inhibition (IC50) lay in the range of 100 to 1000 nM. The AC50 in assay [1] is over 1000 nM.

`O=C(/C=C/c1ccc2c(c1)CN(S(=O)(=O)c1cccnc1)C2)NO` [Example 7, (E)-N-Hydroxy-3-[2-(pyridine-3-sulfonyl)-2,3-dihydro-1H-isoindol-5-yl]-acrylamide]: on HDAC-1, the IC50 lay in the range of 100 to 1000 nM. In addition, the concentration at half-maximal activity (AC50) in assay [1] was over 1000 nM.

For `Cc1ccc(S(=O)(=O)N2Cc3ccc(/C=C/C(=O)NO)cc3C2)cc1` [Example 8, (E)-N-Hydroxy-3-[2-(toluene-4-sulfonyl)-2,3-dihydro-1H-isoindol-5-yl]-acrylamide], the 50% inhibitory concentration (IC50) at HDAC-1 was under 100 nM. In addition, the concentration at half-maximal activity (AC50) in assay [1] was over 1000 nM.

Consider `COc1ccc(S(=O)(=O)N2Cc3ccc(/C=C/C(=O)NO)cc3C2)cc1` [Example 9, (E)-N-Hydroxy-3-[2-(4-methoxy-benzenesulfonyl)-2,3-dihydro-1H-isoindol-5-yl]-acrylamide], for which the concentration for half-maximal inhibition (IC50) on HDAC-1 was under 100 nM. Further, the AC50 in assay [1] is over 1000 nM.

With `O=C(/C=C/c1ccc2c(c1)CN(S(=O)(=O)c1ccc(C(F)(F)F)cc1)C2)NO` [Example 10, (E)-N-Hydroxy-3-[2-(4-trifluoromethyl-benzenesulfonyl)-2,3-dihydro-1H-isoindol-5-yl]-acrylamide], the IC50 on HDAC-1 lay in the range of 100 to 1000 nM. In assay [1], this molecule showed an AC50 of over 1000 nM.

Consider `Cc1cccc(S(=O)(=O)N2Cc3ccc(/C=C/C(=O)NO)cc3C2)c1` [Example 11, (E)-N-Hydroxy-3-[2-(toluene-3-sulfonyl)-2,3-dihydro-1H-isoindol-5-yl]-acrylamide], for which, at HDAC-1, the IC50 is under 100 nM. In assay [1], this molecule gave an AC50 of over 1000 nM.

Take `O=C(/C=C/c1ccc2c(c1)CN(S(=O)(=O)c1cccc(C(F)(F)F)c1)C2)NO` [Example 12, (E)-N-Hydroxy-3-[2-(3-trifluoromethyl-benzenesulfonyl)-2,3-dihydro-1H-isoindol-5-yl]-acrylamide]: the 50% inhibitory concentration (IC50) on HDAC-1 is 100 to 1000 nM. Besides, in assay [1], the AC50 was over 1000 nM.

For `COc1cccc(S(=O)(=O)N2Cc3ccc(/C=C/C(=O)NO)cc3C2)c1` [Example 13, (E)-N-Hydroxy-3-[2-(3-methoxy-benzenesulfonyl)-2,3-dihydro-1H-isoindol-5-yl]-acrylamide], at HDAC-1, the IC50 is under 100 nM. The same molecule yielded an AC50 in assay [1] of over 1000 nM.

On to `Cc1ccccc1S(=O)(=O)N1Cc2ccc(/C=C/C(=O)NO)cc2C1` [Example 14, (E)-N-Hydroxy-3-[2-(toluene-2-sulfonyl)-2,3-dihydro-1H-isoindol-5-yl]-acrylamide], for which the IC50 at HDAC-1 was 100 to 1000 nM. In assay [1], this molecule gave a half-maximal activity concentration (AC50) of over 1000 nM.

For `Cn1cnc(S(=O)(=O)N2Cc3ccc(/C=C/C(=O)NO)cc3C2)c1` [Example 15, (E)-N-Hydroxy-3-[2-(1-methyl-1H-imidazole-4-sulfonyl)-2,3-dihydro-1H-isoindol-5-yl]-acrylamide], at HDAC-1, the IC50 lay in the range of 100 to 1000 nM. Also, the concentration at half-maximal activity (AC50) in assay [1] is over 1000 nM.

Consider `O=C(/C=C/c1ccc2c(c1)CN(C(=O)c1cccc(C(F)(F)F)c1)C2)NO` [Example 16, (E)-N-Hydroxy-3-[2-(3-trifluoromethyl-benzoyl)-2,3-dihydro-1H-isoindol-5-yl]-acrylamide], for which, on HDAC-1, the half-maximal inhibitory concentration (IC50) is 100 to 1000 nM. In assay [1], the concentration at half-maximal activity (AC50) is over 1000 nM.

As to `O=C(/C=C/c1ccc2c(c1)CN(C(=O)c1cccnc1)C2)NO` [Example 17, (E)-N-Hydroxy-3-[2-(pyridine-3-carbonyl)-2,3-dihydro-1H-isoindol-5-yl]-acrylamide], the 50% inhibitory concentration (IC50) on HDAC-1 was in the range of 100 to 1000 nM. In assay [1], this molecule yielded a half-maximal activity concentration (AC50) of over 1000 nM.

Turning to `O=C(/C=C/c1ccc2c(c1)CN(C(=O)c1cccs1)C2)NO` [Example 18, (E)-N-Hydroxy-3-[2-(thiophene-2-carbonyl)-2,3-dihydro-1H-isoindol-5-yl]-acrylamide], the half-maximal inhibitory concentration (IC50) at HDAC-1 was under 100 nM. For the same molecule, the concentration at half-maximal activity (AC50) in assay [1] is over 1000 nM.

Regarding `CCCCS(=O)(=O)N1Cc2ccc(/C=C/C(=O)NO)cc2C1` [Example 19, (E)-3-[2-(Butane-1-sulfonyl)-2,3-dihydro-1H-isoindol-5-yl]-N-hydroxy-acrylamide], the concentration for half-maximal inhibition (IC50) on HDAC-1 was 100 to 1000 nM. Also, the half-maximal activity concentration (AC50) in assay [1] was over 1000 nM.

Consider `O=C(/C=C/c1ccc2c(c1)CN(S(=O)(=O)Cc1ccccc1)C2)NO` [Example 20, (E)-N-Hydroxy-3-(2-phenylmethanesulfonyl-2,3-dihydro-1H-isoindol-5-yl)-acrylamide], for which the IC50 on HDAC-1 was 100 to 1000 nM. The AC50 in assay [1] is over 1000 nM.

Take `O=C(/C=C/c1ccc2c(c1)CN(C(=O)C1CCCCC1)C2)NO` [Example 21, (E)-3-(2-Cyclohexanecarbonyl-2,3-dihydro-1H-isoindol-5-yl)-N-hydroxy-acrylamide]: on HDAC-1, the IC50 was in the range of 100 to 1000 nM. In addition, the concentration at half-maximal activity (AC50) in assay [1] is over 1000 nM.

`O=C(/C=C/c1ccc2c(c1)CN(C(=O)C1CCCC1)C2)NO` [Example 22, (E)-3-(2-Cyclopentanecarbonyl-2,3-dihydro-1H-isoindol-5-yl)-N-hydroxy-acrylamide]: at HDAC-1, the half-maximal inhibitory concentration (IC50) fell in the range of 100 to 1000 nM. Moreover, in assay [1], the concentration at half-maximal activity (AC50) was over 1000 nM.
